Molecules are shown by their SMILES. Where only a bound is given, the exact number is not on record here.

Regarding `CCOCN1C(C)=C(C(=O)OCC)C(c2cccc([N+](=O)[O-])c2)C(C(=O)OCC)=C1C`, the melting point stood at 125 °C.

Compound `CCOC(=O)CN1C(=O)c2ccc3ccccc3c2S1(=O)=O` returned a melting point of 149 to 150 °C.

Regarding `CC[C@H](C)C(OCc1ccccc1)[C@H]1[C@H]([N+](=O)[O-])[C@H](c2ccccc2)N[C@@H]1C(=O)NCCCCCC(=O)O` (some centres not stated), the melting point fell in the range of 105 to 106 °C.

For the compound `CNS(=O)(=O)CCc1ccc2[nH]cc(C3CCN(C)CC3)c2c1`, the melting point lay in the range of 156 to 158 °C.

The compound `CCOC(=O)C(NC(=O)CI)C(=O)OCC` registered a melting point of 95 to 97 °C.

For the compound `CCN1CC(=O)N(C(C)c2ccc(F)cc2)C1=S` (configuration not stated), the melting point fell in the range of 93 to 95 °C.

For `CCC(CO)(CO)Nc1ncc2cc(Oc3ccc(F)cc3F)ccc2n1`, the melting point was 110 to 113 °C.

With `O=C(O)/C=C/c1ccc(OCCN2CCOCC2)cc1`, the melting point worked out at 228 °C.

For the compound `O=c1c(Br)c(OCc2ccc(F)c(F)c2F)ccn1Cc1cccc(F)c1`, the melting point was in the range of 176 to 178 °C.

On to `CCC(C)(C)OC(=O)NC(C)(Cc1c[nH]c2ccccc12)C(=O)NCCCCc1ccccc1` (configuration not stated), for which the melting point was 127 to 130 °C.

`COc1ccc2c(c1)CCC1C2CCC2(C)C(NCCCCCCNc3ccc([N+](=O)[O-])cc3[N+](=O)[O-])CCC12` (configuration not stated): the melting point was 90 to 92 °C.

`CCOC(=O)c1c(N2CCN(C(=O)c3cccs3)CC2)c2cnccc2n(CC(=O)c2ccccc2)c1=O` registered a melting point of 157 °C.

Consider `C=C1SC(=S)N(c2cccc3c(-c4ccc(OC)c(C56CC7CC(CC(C7)C5)C6)c4)cccc23)C1=O`, for which the melting point was 322 to 324 °C.

Turning to `CS(=O)(=O)c1ccc(N)c(C#N)c1`, the melting point lay in the range of 155 to 157 °C.

Consider `CCCCCCCCCCc1cc2c(s1)-n1c(C)nnc1CN=C2c1ccccc1C`, for which the melting point was 61 to 63 °C.

Compound `COc1ccc2c(c1)C(c1ccccc1)=Nn1c(C)cnc1C2` displayed a melting point of 140 °C.

Consider `CCCCCS(=O)(=O)NC(=O)CCCc1cc(OCCCC)nn1Cc1ccc(Cl)cc1Cl`, for which the melting point fell in the range of 121 to 122 °C.

`CC(=O)c1ccc(OCCCCCCOc2ccccc2)o1` yielded a melting point of 80 °C.

Compound `CCOC(=O)c1oc2ccc(Cl)cc2c1C` came in with a melting point of 80 to 82 °C.

On to `CCCCC1=NC2(CCCC2)C(=O)N1Cc1ccc(-c2ccccc2S(=O)(=O)Nc2noc(C)c2C)c(CO)c1`, for which the melting point was 90 to 98 °C.

Regarding `O=C(Oc1cccc2c(-c3ccccc3)c3cccc(OC(=O)C4CCCCC4)c3c(OC(=O)C3CCCCC3)c12)C1CCCCC1`, the melting point amounted to 235 °C.

In the case of `CCCCc1cn(CCC2CC2)c(=O)n1Cc1ccc(-c2ccccc2-c2nnn[nH]2)nc1`, the melting point is 182 to 183 °C.

With `CC1=NSc2c(F)c(F)c(F)c(F)c2N1Cc1ccc(-c2ccccc2C(=O)OC(C)(C)C)cc1`, the melting point was 177 to 179 °C.

In turn, `Cc1c(S(=O)(=O)N(C)C)c(=O)c2ccc(F)cc2n1C` came in with a melting point of 244 to 248 °C.

`CC(C)(C)OC(=O)Nc1cc(Sc2ccc3c(C(=O)O)cccc3c2)ncn1` displayed a melting point of 208 to 209 °C.

The compound `COc1cc2c(cc1Nc1ncc(Cl)c(N[C@H]3[C@@H](C(N)=O)[C@@H]4C=C[C@H]3C4)n1)NC(=O)CN(CC1CC1)C2` came in with a melting point of 152 °C.

For `c1ccc(CNc2ccncc2)cc1`, the melting point is 108 to 110 °C.

Compound `Cc1oc(-c2ccccc2)nc1CCSc1ccc(C=O)cc1` had a melting point of 74 to 76 °C.

The compound `COc1cccc(NC(=O)C(C)(C)C)c1CCO` showed a melting point of 118 to 120 °C.

Regarding `O=C(O)c1cc(OC(F)(F)F)ccc1[N+](=O)[O-]`, the melting point fell in the range of 90 to 93 °C.

On to `CSCC(=O)N(C)C(C)=Nc1cn(-c2cccnc2)nc1C`, for which the melting point was 54 to 57 °C.

Compound `CCCCCCCCNC(=O)N(C)C[C@H](O)[C@@H](O)[C@H](O)[C@H](O)CO` returned a melting point of 111 °C.

With `CCc1nc2c(N)nc3c(c2n1CCCCS(=O)(=O)NC)CCCC3`, the melting point fell in the range of 166 to 170 °C.

The compound `CCC(=O)Nc1cc(-c2c(-c3ccc(F)c(C)c3)nc3cccnn23)ccn1` showed a melting point of 166 to 167 °C.

Consider `COc1ncc(C)nc1NS(=O)(=O)c1cccc(Cl)c1Cl`, for which the melting point lay in the range of 50 to 60 °C.

`CCCCCCCCCCCCCCCCCCS(=O)(=O)c1cc2ccccc2c(N=Nc2ccc(OC)cc2)c1O`: the melting point was in the range of 117 to 119 °C.

Take `COC(=O)Cn1cnc(N2CCc3ccccc3CC2)c(C#N)c1=O`: the melting point was 156 to 160 °C.

On to `CN(C)C(=O)Nc1c(C(=O)c2cccc(Cl)c2)[nH]c2cc(Cl)ccc12`, for which the melting point lay in the range of 214 to 221 °C.

For `CCCOc1ccccc1-c1nc2c(CCC)nn(C)c2c(=O)[nH]1`, the melting point was in the range of 115 to 116 °C.

`CCNC(=O)OCc1cnc(C)c(OC(=O)NCC)c1` registered a melting point of 121 to 122 °C.

With `COc1cc(NC(=O)Nc2cccc3c2C2CC(O)CCN2C3=O)nc2ccccc12` (configuration not stated), the melting point is above 260 °C.

For `CC1Oc2ccc(CN3CCN(CC(=O)NC4CC4)CC3)cc2NC1=O` (configuration not stated), the melting point was in the range of 180 to 181 °C.

Regarding `CCOCc1cc2ccccc2oc1=Nc1ccc(Cl)cc1`, the melting point was in the range of 84 to 86 °C.

The compound `CN1C[C@@H]2C[C@H]1CN2C(=O)N1CCC(c2[nH]nc3c2C(=O)c2c(NC(=O)NN4CCOCC4)cccc2-3)CC1` displayed a melting point of 224 to 225 °C.

In turn, `CCCSc1nc(C)c(CC(=O)O)n1-c1ccccc1Cl` gave a melting point of 68 to 71 °C.

In turn, `CC(C)n1nc(-c2sc(NC(=O)c3ccc4ccccc4c3)nc2-c2ccccc2)ccc1=O` yielded a melting point of 227 to 229 °C.

As to `CC(=O)c1cc2c(s1)C(N1CCCC1=O)C(O)C(C)(C)O2` (configuration not stated), the melting point fell in the range of 102 to 106 °C.

The compound `O=[N+]([O-])c1cccc(-c2ccnc3c(-c4ccsc4)cnn23)c1` yielded a melting point of 148 to 150 °C.

`COC(C)=Nc1cccc(O)n1` returned a melting point of 128 to 129 °C.

`O=[N+]([O-])c1c(NCCCO)cc(NCCCO)cc1NCCCO` registered a melting point of 150 °C.

Turning to `O=[N+]([O-])c1ccc2c([N+](=O)[O-])c(O)c(O)cc2c1`, the melting point fell in the range of 200 to 207 °C.

`O=C(NCCCc1ccncc1)N(CCC12CC3CC(CC(C3)C1)C2)CC1CCCC1`: the melting point fell in the range of 155 to 158 °C.

`C=CC1CCCC(=O)N1Cc1ccccc1Cl` (configuration not stated) returned a melting point of 37 to 39 °C.

`CCCCCCCCCCCCCCCCC[C@H](O)C[C@@H]1OC(=O)[C@H]1CC`: the melting point was 80 to 82 °C.

`CC1=NC(NCc2ccc(O)c(OC(F)F)c2)C(C)(Cl)C=N1` (configuration not stated) showed a melting point of 167 to 168 °C.

`O=C(CBr)Nc1cc(F)ccc1C(=O)O`: the melting point was 166 to 168 °C.

In the case of `Cc1ccc(-c2ccnc3c(C(=O)c4cccs4)cnn23)cc1NC(=O)OC(C)C`, the melting point is 198 to 200 °C.

For `OCCCSc1csc2ccccc12`, the melting point was in the range of 154 to 155 °C.

For the compound `CSc1cccc(-n2cnc(-c3ccc(F)cc3)c2-c2ccncc2)c1`, the melting point lay in the range of 155 to 156 °C.

As for `Cc1cc(C)cc(-c2nc(NC(=O)Cc3ccccc3)sc2-c2ccncc2)c1`, the melting point lay within 226 to 229 °C.

Take `Cc1ccc(-c2ccc3c(c2)C=C(C(=O)Nc2ccc(C(O)c4ccccn4)cc2)CCO3)cc1` (configuration not stated): the melting point was 215 to 217 °C.

In the case of `OC1CSC(Oc2cncc(-c3nccs3)c2)C(O)C1O` (configuration not stated), the melting point is 204 °C.

Take `CC(C)C(NC(=O)c1ccccc1)C(=O)O` (racemic): the melting point fell in the range of 125 to 128 °C.

Take `COCCOc1cc(Cl)cnc1[N+](=O)[O-]`: the melting point was in the range of 71.5 to 72.5 °C.

In turn, `CCOC(=O)N=C(N)c1ccc(OCc2cccc(COc3ccc(C(C)(C)c4ccccc4)cc3)c2)cc1` registered a melting point of 99 °C.

`Cc1c(NC(=O)c2ccc(-c3ccc4c(c3)OCO4)cc2)ccc2cc(CN3CCCC3)cnc12` yielded a melting point of 171 to 172 °C.

`CNC(=O)c1ccc(C)c(-n2c(C)cc(OCc3ccccc3CNC(=O)Nc3cc(C(C)(C)C)nn3-c3ccc(O)c(Cl)c3)c(Cl)c2=O)c1` came in with a melting point of 201 to 203 °C.

As to `CCCOc1ccc(C)cc1C(N)=O`, the melting point was 112 to 115 °C.

`O=C(N[C@@H](Cc1ccc(OCc2ccccc2)cc1)C(=O)O)c1cn2cc(/C=C/c3ccccc3)ccc2n1` registered a melting point of 262 to 263 °C.

`O=C(O)c1cccc([N+](=O)[O-])c1NCc1ccccc1Cl` gave a melting point of 164 °C.

Turning to `Cc1c(/C=N/OCc2ccc(C(=O)O)c(Br)c2)c2ccccc2n1C`, the melting point lay within 165 to 166 °C.

With `NNc1cccc(F)c1[N+](=O)[O-]`, the melting point was 93 to 95 °C.

`CN1CCC(c2nc(-c3ccccc3)c3ccccc3n2)CC1` returned a melting point of 83 to 86 °C.

As for `Cc1nn(-c2ccccn2)c2c1c(=O)c1ccccc1n2C`, the melting point is 192 to 193 °C.

The compound `COC(=O)c1ccc2c(c1)C(=O)C(C)C(c1ccccc1)=N2` (configuration not stated) had a melting point above 300 °C.

On to `COc1ccc(Oc2ccc(C(C)=C3SCCCS3)cc2)cc1OC`, for which the melting point lay within 73.5 to 75.5 °C.

Compound `CSCCCN1C(=O)C(NC(=O)c2cc3ccccc3[nH]2)N=C(c2ccccc2)c2ccccc21` (racemic) returned a melting point of 216 to 221 °C.

Compound `COc1cccc(OC)c1C(=O)Oc1cc([N+](=O)[O-])cc([N+](=O)[O-])c1O` displayed a melting point of 217 to 218 °C.

As to `CC1CN(C)N(c2cc(Cl)cc(Cl)c2)C(=O)N1` (configuration not stated), the melting point was in the range of 129 to 130 °C.

Compound `O=c1oc2ccccc2n1CCN1CCc2c([nH]c3ccccc23)C1` registered a melting point of 135 to 137 °C.

Compound `CCOC(=O)c1cn(C)c2cc(Br)ccc2c1=O` showed a melting point of 189 to 191 °C.

The compound `O=S(=O)(Nc1ccc2c(OCc3nc(-c4ccc(F)cc4)no3)cccc2c1)C(F)(F)F` had a melting point of 131 to 132 °C.

Consider `O=Cc1cccc(-c2nnn[nH]2)c1`, for which the melting point lay in the range of 185 to 189 °C.

Compound `CC(O)c1ccc(CCNS(=O)(=O)c2ccc(Br)cc2)cc1` (configuration not stated) registered a melting point of 125 to 127 °C.

The compound `CNCC1Cc2cc(-c3ccccc3)cc(-c3ccccc3OC)c2O1` (configuration not stated) came in with a melting point of 140 to 143 °C.

Compound `COc1cc(NC(=S)Nc2ccccc2)ccc1NNC=O` yielded a melting point of 183 to 184 °C.

Take `Fc1cc(F)c(-c2c(Cl)ncn2-c2ccc(Cl)cc2)c(F)c1`: the melting point fell in the range of 102 to 104 °C.

What is called melting point is the temperature, or range, at which the solid turns liquid.
